Results published in US20090036512A1, “FUNGICIDAL ACTIVE COMPOUND COMBINATION” (priority 2005, published 2009).

Tested on: Leptosphaeria nodorum
Test: Leptosphaeria nodorum test (wheat)/protective
Type: in vivo
Settings: Parastagonospora nodorum, 240 h, protective, evaluation 10 days after inoculation
Description: Leptosphaeria nodorum test (wheat)/protective Solvent: 50 parts by weight of N,N-dimethylacetamide Emulsifier: 1 part by weight of alkylaryl polyglycol ether To prepare a suitable preparation of active compound, 1 part by weight of active compound or active compound combination is mixed with the stated amounts of solvents and emulsifier, and the concentrate is diluted with water to the desired concentration, or a commercial formulation of active compound or active compound combination with water is diluted with water to the desired concentration. To test for protective activity, young plants are sprayed with the active compound preparation at the stated application rate. After the spray coating has dried on, the plants are sprayed with a spore suspension of Leptosphaeria nodorum. The plants remain in an incubation cabin at 20° C. and 100% relative atmospheric humidity for 48 hours. The plants are placed in a greenhouse at a temperature of about 20° C. and a relative atmospheric humidity of 80%. Evaluation is carried out 10 days after inoculation. Here, 0% means an efficacy which corresponds to that of the control, whereas an efficacy of 100% means that no infection is observed.

| SMILES | Emax at 25 ppm (application rate 25 ppm, read-out: % efficacy) | Emax at 82.5 ppm (application rate 82.5 ppm, read-out: % efficacy (converted)) | Emax at 375 ppm (application rate 375 ppm, read-out: % efficacy) | Emax at 500 ppm (application rate 500 ppm, read-out: % efficacy) |
| --- | --- | --- | --- | --- |
| CON=C(C(=O)OC)c1ccccc1CO/N=C(\C)c1cccc(C(F)(F)F)c1 [Trifloxystrobin, 2-[α-{[(α-methyl-3-trifluoromethyl-benzyl)imino]-oxy}-o-tolyl]-glyoxylic acid methyl ester O-methyloxime] | 50% | – | – | – |
| O=C1C2CC=CCC2C(=O)N1SC(Cl)(Cl)Cl (stereo not shown) [Captan, 3a,4,7,7a-tetrahydro-2-[(trichloromethyl)thio]-1H-isoindole-1,3(2H)-dione] | – | 50% | 25% | 25% |
